Measured values from patent publication EP1146895B1, “THROMBOPOIETIN COMPOSITIONS FOR INCREASING CIRCULATING PLATELETS” (BOARD OF REGENTS, THE UNIVERSITY OF TEXAS SYSTEM, priority 1999, dated 2000).

How the values were obtained:
platelets = experiment: Reversible block of in vitro ADP- and collagen-induced aggregation by second messenger effectors; type: cell-based; conditions: agonist (ADP, collagen)-induced
Description: The reversible inhibition induced by this formulation effectively reduces the development of the platelet storage lesion when platelets are cryopreserved. The following is a brief description of the second messenger pathways manipulated in order to control activation of platelets during storage, and the specific inhibitors used to abrogate the initiation of the respective pathways.

[1] = tested on: carboplatin-induced thrombocytopenia; experiment: Phase I/II study of subcutaneous rhTPO prior to and following carboplatin in gynecologic malignancy: hematologic effects; conditions: for Number (%) of Patients Requiring Platelet Transfusions: Cycle-1 (Carboplatin) or Cycle-2 (Carboplatin+ rhTPO)
Description: Carboplatin is effective in advanced-stage platin-sensitive recurrent disease; however, cumulative thrombocytopenia is frequently dose-limiting. […] During dose-escalation phase, rhTPO was given by S.C. injection as a single dose (0.6, 1.2, 2.4, 3.6 mcg/kg) prior to carboplatin and for four doses following a second cycle of carboplatin. […]
The inventor performed a phase I/II study of rhTPO prior to and following carboplatin in 29 patients with advanced gynecologic malignancy. During the dose-escalation phase, rhTPO was administered by subcutaneous injection as a single dose (0.6, 1.2, 2.4, and 3.6 mcg/kg) prior to carboplatin, and for four doses following a second cycle of carboplatin. During dose-expansion phase (n=12). rhTPO was used at the optimal biologic dose only as a secondary prophylaxis for severe thrombocytopenia.
The study included two components, a dose-escalation (safety) component and dose-expansion (activity) component using the optimal dose. During the dose-escalation part of this trial, rhTPO was administered as a single dose by subcutaneous injection 3 weeks before chemotherapy in order to evaluate clinical tolerance and the hematopoietic effects of rhTPO alone. […] Thus Cycle- 1 (chemotherapy alone) served as an internal control for each patient for Cycle-2 (chemotherapy with rhTPO).
At least three patients were entered at each dose level of rhTPO (0.6, 1.2, 2.4, and 3.6 mcg/m^2/d). […] In the subsequent cycles, rhTPO was used at OBD as a secondary prophylaxis by same schedule [days 2, 4, 6, 8 (n=6)] or by a modified schedule [days -1, 1, 3, 5 (n=6)]. The latter schedule was used to assess whether earlier administration of TPO can further augment the degree of protection.
Patients received platelet transfusions for severe thrombocytopenia (i.e. platelet count <20,000/mm^3), RBC transfusions for anemia (i.e. hemoglobin [Hb]<8 gm/dL), and antibiotics for neutropenic fever (i.e. temperature ≥38.3°C and absolute neutrophil count <500/mm^3) or when clinically indicated. The use of G-CSF was not allowed during the first two cycles of chemotherapy, but was allowed in the later cycles (3 - 6) only if clinically indicated (i.e. as a secondary prophylaxis in those patients who experienced prolonged neutropenia or delayed neutrophil recovery).
(§1) Before and during the course of the clinical trial, patients were monitored with complete history, physical examinations, and laboratory tests including complete blood cell counts, serum chemistry, urinalysis, chest X-ray, and electrocardiograph. Blood counts were performed three times a week until the expected nadir period was reached and then daily until the counts had recovered. Serum samples were examined for antibodies reactive to full length TPO three times prior to study and weekly while on study. Positive sera (optical density ratio ≥1.5) were further analyzed by anti-truncated TPO antibody assay, C-mpl blocking assay, and cell-proliferation biologic assay. Patients positive in all assays were considered to be at risk for antibody-induced thrombocytopenia. Bone marrow (BM) aspiration and biopsy were done in all patients before, and one week after rhTPO treatment, and in selected patients at a later time point (day 10 or 14) in the prechemotherapy cycle. Tumor response was evaluated by physical examination, tumor marker (CA-125) evaluation, and imaging studies performed at periodic intervals.
Hematopoietic toxicity from Cycle-1 1 of chemotherapy (no rhTPO) was compared with the results from Cycle-2 (with rhTPO) by means of a paired T test for continuously measured variables.

[2] = Phase I/II carboplatin study: clinical tolerance, adverse events, anti-TPO antibodies; type: in vivo, humans
gynecologic malignancy = experiment: Phase I/II carboplatin study: tumor response; type: in vivo, humans; conditions: carboplatin AUC 11 with or without rhTPO, 25 evaluable patients
Protocol: as §1

recurrent ovarian cancer = conditions: 800 mg/m^2 without cytokine support, 30 patients (Ozols et al., 1987); cited from earlier work
[3] = 22 patients, C-1 (C) or C-2 (C+T), mean ± SEM
[4] = Cycle-1 Carboplatin alone or Cycle-2 Carboplatin + rhTPO, n=27

## Nc1ncnc2c1ncn2[C@@H]1O[C@H](CO)[C@@H](O)[C@H]1O [Adenosine]
platelets
  effect on in vitro aggregation of platelets: reversibly inhibits

## N.N.O=C([O-])C1(C(=O)[O-])CCC1.[Pt+2] [Carboplatin]
[1]; 22 patients, all rhTPO doses, C-1 carboplatin alone (C), C-2 carboplatin + rhTPO (C+T), mean ± SEM
  Nadir PLT: 20 ±5 x10^3/mm^3
[1]; 22 patients, C-1 (C) or C-2 (C+T)
  No. (%) of PTS transfused: 11 (50)
[1]; [3]
  Days PLT <50 × 10^3/mm^3: 6.3 ±1.0 days
  Days PLT <100 × 10^3/mm^3: 10.3 ± 1.3 days
[1]; All Patients (0.6 - 3.6 mcg/kg) n=27
  Number (%) of Patients Requiring Platelet Transfusions: 16 (59%)
[1]; Optimal Biologic Dose (1.2 mcg/kg) n=16
  Number (%) of Patients Requiring Platelet Transfusions: 12(75%)
[1]; cycle-1 without rhTPO, secondary prophylaxis patients
  incidence of thrombocytopenia requiring platelet transfusions: 10 of 12
[2]; Cycle-1 Carboplatin alone n=27 or Cycle-2 Carboplatin + rhTPO n=27
  Fever, number of patients: 12
[2]; [4]
  Anorexia, number of patients: 14
  Anorexia, number of patients experiencing grade ≥3 toxicity: 1
  Bone pain, number of patients: 7
  Chills, number of patients: 8
  Constipation, number of patients: 11
  Constipation, number of patients experiencing grade ≥3 toxicity: 2
  Diarrhea, number of patients: 8
  Diarrhea, number of patients experiencing grade ≥3 toxicity: 1
  Fatigue, number of patients: 12
  Fatigue, number of patients experiencing grade ≥3 toxicity: 10
  Headache, number of patients: 11
  Headache, number of patients experiencing grade ≥3 toxicity: 4
  Mucositis, number of patients: 4
  Myalgia, number of patients: 10
  Nausea, number of patients: 18
  Nausea, number of patients experiencing grade ≥3 toxicity: 3
  Vomiting, number of patients: 12
[2]; Cycle-1 Carboplatin alone, n=27
  Vomiting, number of patients experiencing grade ≥3 toxicity: 1
Gynecologic malignancy
  major tumor response: 50%
Recurrent ovarian cancer
  Major responses: 27%

## N=C(N)NC(=O)c1nc(Cl)c(N)nc1N [Amiloride]
platelets
  effect on in vitro aggregation of platelets: effectively and reversibly blocks
